This assay concerns the target DYNLL1 (dynein light chain type 1) (Homo sapiens, UniProt P63167). Description: isothermal titration calorimetry. Format: binding.

Sequence of DYNLL1 (dynein light chain type 1) (P63167 whole entry): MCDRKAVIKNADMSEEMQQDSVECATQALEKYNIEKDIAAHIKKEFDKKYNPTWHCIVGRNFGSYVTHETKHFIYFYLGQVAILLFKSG

Usually Kd stands for a measure of binding affinity in units of concentration. Lower therefore signals tighter binding. `C=C(C)[C@@H](CC[C@]1(C)O[C@@H]([C@](C)(O)[C@@H]2CC[C@H]3O[C@@H]([C@]4(C)CC[C@@H](Br)C(C)(C)O4)CC[C@]3(C)O2)C[C@H]1O)OC` [1a, aplysqualenol A] returned an equilibrium dissociation constant (Kd) of 0.84 ± 0.31 µM.

These data come from paper PMC3582901 (Angewandte Chemie (International ed. in English), 2011).
